Measurements reported in patent publication US9763884B2, “Drug delivery system” (EB IP HYBRITABS B.V., priority 2011, dated 2017).

Tests used:
[1] = Pharmacokinetics of three single doses of sublingual testosterone solution in healthy premenopausal women; conditions: for AUC(0-t) / Cmax / MRT / Tmax / half-life / bioavailability: female, human, in vivo; for AUC(0-t) / Cmax / MRT / Tmax / half-life: serum; for AUC(0-t) / Cmax: geometric mean (% CV); for MRT / Tmax / half-life: mean ± SD
Description: All 16 subjects received each investigational drug dose once in random order. Wash-out between treatments was at least 48 h. Subjects had serial blood samples drawn via an intravenous catheter. Pharmacokinetic parameters were monitored at baseline and (at 2, 4, 6, 8, 10, 20, 30, 60, 90, 120, 180, 230 min) after dosing.
Blood samples in the placebo condition were only measured at −5, 10, 60 and 230 min.
For the placebo solution 0.50 ml was administered.
The different doses were prepared by an unblinded research associate and administered by blinded research associates. The blinded research associate administered the solution into the subjects mouth under the tongue, the subjects were instructed to keep the solution sublingually for 1 minute while moving the tongue slightly to optimize absorption. After 1 minute the blinded research associate instructed the subject to swallow the solution.
E2 was analysed by a chemiluminescence immunoassay (Siemens), the LLOQ was […]. 3α-diol-G was measured by ELISA (BioVendor), the LLOQ was 0.25 ng/mL. SHBG was measured by an electrochemiluminescent assay (ECLIA, Roche). Albumin was measured by Roche Bromocresol Green (BCG) analysis (Roche).
The pharmacokinetic parameters were analyzed using the WinNonlin software (version 5.1). Pharmacokinetic parameters including area under the curve, t=0 till t=230 min (AUC0-230), maximum concentration (Cmax) and time to maximum concentration (tmax) were calculated based on actual and baseline corrected individual concentration time curves. AUCs were estimated using the linear trapezoidal rule. Individual pharmacokinetic parameters AUC0-230 and Cmax and corresponding dose normalized parameters were log transformed and analyzed using a mixed maximum likelihood analysis (PROC MIXED in SAS, version 9.1) including subject as a random factor and drug as a fixed effect factor. Contrasts were made of the least square means to compare the different doses. Tmax was analyzed using a Wilcoxon rank sum test. This was based on the planned times corresponding to the actual tmax to prevent bias in analysis results based on differences in sampling times.
Subsequently, we divided the subjects into two subgroups, on the basis of their baseline SHBG levels (mean of placebo, 0.25, 0.50, 0.75 mg predose levels). This subdivision was based on a median split of the baseline SHBG levels. One group (N=8) with low SHBG levels (≦63 nmol/L) and the other group (N=8) with relatively high SHBG levels (>63 nmol/L).

[2] = general statement in the discussion, no source given; cited from earlier work
[3] = Clinical cross-over pharmacokinetic study of F1 versus F2 (testosterone and sildenafil citrate) in healthy pre-menopausal women; conditions: female, human, plasma, other: sublingual, 0.5 mg
Description: Sildenafil (S) and N-desmethyl-sildenafil (NDS) concentrations were determined by HPLC-MS/MS as follows.
The human plasma samples were vortex mixed and 0.5 mL of the sample was transferred into a clean test tube to which 20 μL of an Internal Standard solution (10 ng/mL) in methanol was added and vortex mixed. Then, 4 mL Methyl-Tertiary-Butyl-Ether (MTBE) was added, tubes were capped and shaken for 10 minutes and then centrifuged for 5 minutes at 2000 rcf. The tubes were placed into a snap freezer and the bottom water layer was frozen. The supernatant was transferred into a clean tube and evaporated to dryness under a stream of nitrogen. […]
Cmax and Tmax were read from the observed values. The half life was calculated from the unweighted linear regression of the log transformed data determined at the elimination phase of the pharmacokinetic profile. The Area Under Curve (O-last) was determined as the area under the concentration versus time curve from the first time point to last time point with measurable drug concentration with a linear/log-linear trapezoidal model. The AUC (0-∞) was determined by extrapolation from the time point where the last measurable drug concentration (Cp) occurred to time infinity. […] Tlag was determined as the first time point with a measurable concentration.
The calculated concentrations were used for PK calculations.

[4] = 0.25 mg, free testosterone, 0.25 mg sublingual
[5] = 0.25 mg, total testosterone, 0.25 mg sublingual
[6] = 0.5 mg, free testosterone, 0.50 mg sublingual
[7] = 0.5 mg, total testosterone, 0.50 mg sublingual
[8] = 0.75 mg, free testosterone, 0.75 mg sublingual
[9] = 0.75 mg, total testosterone, 0.75 mg sublingual
[10] = subjects with high SHBG, 0.25 mg
[11] = subjects with high SHBG, 0.50 mg
[12] = subjects with high SHBG, 0.75 mg
[13] = subjects with low SHBG, 0.25 mg, at 20 min after dosing
[14] = subjects with low SHBG, 0.50 mg, at 20 min after dosing
[15] = subjects with low SHBG, 0.75 mg, at 20 min after dosing

C[C@]12CC[C@H]3[C@@H](CCC4=CC(=O)CC[C@@]43C)[C@@H]1CC[C@@H]2O [Testosterone, testosterone]
time at which serum free and total testosterone levels peaked ([1]; all three doses (0.25, 0.50, 0.75 mg) sublingual): 15 min
AUC(0-t) ([1]; 0.25 mg, Baseline corrected AUC 0-230, free testosterone, 0.25 mg sublingual): 0.0158 ng·h/mL
AUC(0-t) ([1]; 0.25 mg, Baseline corrected AUC 0-230, total testosterone, 0.25 mg sublingual): 3.23 ng·h/mL
Cmax [1, 4]: 0.021 ng/mL
Cmax [1, 5]: 3.79 ng/mL
MRT [1, 4]: 52.6 min
MRT [1, 5]: 57.7 min
Tmax [1, 4]: 15.6 min
Tmax [1, 5]: 15.6 min
half-life ([1]; 0.25 mg, t1/2, free testosterone, 0.25 mg sublingual): 42.3 ± 14.6 min
half-life ([1]; 0.25 mg, t1/2, total testosterone, 0.25 mg sublingual): 49.8 ± 16 min
bioavailability ([1]; 0.5 mg): 69%
AUC(0-t) ([1]; 0.5 mg, Baseline corrected AUC 0-230, free testosterone, 0.50 mg sublingual): 0.0252 ng·h/mL
AUC(0-t) ([1]; 0.5 mg, Baseline corrected AUC 0-230, total testosterone, 0.50 mg sublingual): 4.43 ng·h/mL
Cmax [1, 6]: 0.032 ng/mL
Cmax [1, 7]: 5.31 ng/mL
MRT [1, 6]: 57.1 min
MRT [1, 7]: 55.6 min
Tmax [1, 6]: 14.4 min
Tmax [1, 7]: 15.1 min
half-life ([1]; 0.5 mg, t1/2, free testosterone, 0.50 mg sublingual): 55.7 ± 27.5 min
half-life ([1]; 0.5 mg, t1/2, total testosterone, 0.50 mg sublingual): 49.7 ± 22.4 min
bioavailability ([1]; 0.75 mg): 58%
AUC(0-t) ([1]; 0.75 mg, Baseline corrected AUC 0-230, free testosterone, 0.75 mg sublingual): 0.0312 ng·h/mL
AUC(0-t) ([1]; 0.75 mg, Baseline corrected AUC 0-230, total testosterone, 0.75 mg sublingual): 5.62 ng·h/mL
Cmax [1, 8]: 0.043 ng/mL
Cmax [1, 9]: 6.73 ng/mL
MRT [1, 8]: 51.4 min
MRT [1, 9]: 59.5 min
Tmax [1, 8]: 12.8 min
Tmax [1, 9]: 14.3 min
half-life ([1]; 0.75 mg, t1/2, free testosterone, 0.75 mg sublingual): 51.1 ± 26.4 min
half-life ([1]; 0.75 mg, t1/2, total testosterone, 0.75 mg sublingual): 58.5 ± 24.6 min
influence on 3α-diol-G concentrations ([1]; increasing doses, t=0, 60, 120, 230): does not seem to influence
maximum levels of free testosterone [1, 10]: 0.018 ng/mL
maximum levels of total testosterone [1, 10]: 5.00 ng/mL
maximum levels of free testosterone [1, 11]: 0.026 ng/mL
maximum levels of total testosterone [1, 11]: 7.08 ng/mL
maximum levels of free testosterone [1, 12]: 0.034 ng/mL
maximum levels of total testosterone [1, 12]: 9.04 ng/mL
maximum levels of free testosterone [1, 13]: 0.026 ng/mL
maximum levels of total testosterone [1, 13]: 3.18 ng/mL
maximum levels of free testosterone [1, 14]: 0.039 ng/mL
maximum levels of total testosterone [1, 14]: 3.93 ng/mL
maximum levels of free testosterone [1, 15]: 0.048 ng/mL
maximum levels of total testosterone [1, 15]: 4.73 ng/mL
tolerability ([1]; three doses sublingual testosterone): well tolerated
T1/2 of free testosterone (rapidly metabolized) [2]: 10 min
Tmax [3]: 10 to 20 min
half-life [3]: ~37 min
